This experiment deals with T1, 5-HT2B Receptors (Homo sapiens, UniProt P41595).
T1 construct: expressed in transfected cells
The experiment can be described thus: Antagonist activity assay (FLIPR, CHO-K1/5-HT2B stable cell line). The conditions noted are these: for inhibition at 1 µM: 1 μM compound, CHO-K1/5-HT2B cells stimulated with 12 nM (EC80) 5-HT; for IC50: CHO-K1/5-HT2B cells, antagonist mode vs EC80 5-HT. It is filed as cell-based. How it is done:
Briefly, CHO-K1 cells expressing 5-HT2B were seeded in a 384-well black-wall, clear-bottom plate at a density of 20,000 cells per well in 20 μL of growth medium (10% dialyzed FBS+90% F12), 18 hours prior to the day of experiment and maintained at 37° C./5% CO2. 20 μL of dye-loading solution and 10 μL of tested compound solution (at concentrations five times to the final assay concentrations) were added into the well. Then the plate was placed into a 37° C. incubator for 60 minutes, followed by 15 minutes at room temperature. At last, 12.5 μL of control agonist (at concentrations five times to the EC80 concentrations) was added. The control agonist was added to reading plate at 20 s and the fluorescence signal was monitored for an additional 100 s (21 s to 120 s). In screening, cells stimulated with assay buffer (HBSS-HEPES) containing 0.1% DMSO were chosen as background; cell stimulated with 12 nM (EC80 of the cell line) of 5-HT were chosen as the agonist control; cell treated with SB206553 were chosen as positive control of the screening.
Data acquisition and analyses are performed using ScreenWorks (version 3.1) program. The average fluorescent intensity value during 1 s to 20 s calculated as the baseline reading. The relative fluorescent units (ΔRFU) intensity values were calculated with the maximal fluorescent units (21 s to 120 s) subtracting the average value of baseline reading. The % inhibition of the test article is calculated from the following equation: % inhibition=[1−(ΔRFUCompound−ΔRFUBackground)/(ΔRFUAgonist control−ΔRFUBackground)]*100

Where only a bound is given, the exact number is not on record here.

T1 sequence (P41595 whole entry): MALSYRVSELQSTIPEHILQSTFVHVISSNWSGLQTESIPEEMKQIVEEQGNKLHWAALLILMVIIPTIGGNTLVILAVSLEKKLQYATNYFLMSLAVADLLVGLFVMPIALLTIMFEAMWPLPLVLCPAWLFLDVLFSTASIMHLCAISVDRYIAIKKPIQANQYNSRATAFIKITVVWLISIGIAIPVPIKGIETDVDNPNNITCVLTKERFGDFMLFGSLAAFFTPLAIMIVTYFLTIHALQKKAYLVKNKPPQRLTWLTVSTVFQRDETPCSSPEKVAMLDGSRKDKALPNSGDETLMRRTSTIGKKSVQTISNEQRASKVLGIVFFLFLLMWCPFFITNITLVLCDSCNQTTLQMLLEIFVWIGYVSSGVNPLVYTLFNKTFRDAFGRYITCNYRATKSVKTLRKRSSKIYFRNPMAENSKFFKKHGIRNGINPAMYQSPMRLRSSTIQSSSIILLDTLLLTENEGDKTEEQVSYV

Broadly, the inhibition is the relative decrease from the control value, in per cent. Turning to `CC1(C)N=C(N)N=C(Nc2ccccc2)N1` [1-a], the inhibition at 1 µM was below 50%. The same measure, in the same setting: in the case of `COc1ccccc1NC1=NC(N)=NC(C)(C)N1` [1-b] it was below 50%. By IC50 is commonly meant the concentration needed to halve the response being measured. Read a high IC50 as weaker potency in that assay. Take `CC1(C)N=C(N)N=C(Nc2cccc(Br)c2)N1` [1-c]: the inhibition at 1 µM is 75.9 ± 11.5% and half-maximal inhibition (IC50) was put at 328 nM. On the same counts, the results for `CC1(C)N=C(N)N=C(Nc2ccc(Cl)cc2)N1` [1-d] are 93.1 ± 4.2% and 1640 nM.

Turning to `CC1(C)N=C(N)N=C(Nc2ccc(Br)cc2)N1` [1-e], the inhibition at 1 µM is below 50%. On to `CC1(C)N=C(N)N=C(Nc2ccc(I)cc2)N1` [1-f], for which the inhibition at 1 µM is below 50% and the IC50 stood at 2510 nM. Turning to `CCOc1ccc(NC2=NC(N)=NC(C)(C)N2)cc1` [1-g], the inhibition at 1 µM is below 50%. Still for that read-out and setting: in the case of `COc1ccccc1NC1=NC(N)=NC2(CCCC2)N1` [1-h] it was below 50%; in that of `Cc1cccc(NC2=NC(N)=NC3(CCCC3)N2)c1` [1-i], below 50%. As for `COc1cccc(NC2=NC(N)=NC3(CCCC3)N2)c1` [2-a], the inhibition at 1 µM is 63.4 ± 15.1% and the IC50 turned out to be 1060 nM. In the case of `NC1=NC2(CCCC2)NC(Nc2ccc(F)cc2)=N1` [2-b], the inhibition at 1 µM was below 50%.

As for `Cc1ccc(C)c(NC2=NC(N)=NC3(CCCC3)N2)c1` [2-c], the inhibition at 1 µM is below 50%.

For `Cc1cccc(C)c1NC1=NC(N)=NC2(CCCC2)N1` [2-d], the inhibition at 1 µM is below 50%. As to `NC1=NC2(CCCCC2)NC(Nc2ccccc2)=N1` [3-a], the inhibition at 1 µM is below 50%.

`Cc1ccccc1NC1=NC(N)=NC2(CCCCC2)N1` [3-b]: the inhibition at 1 µM was below 50%. On the same count and under the same terms, in the case of `COc1ccccc1NC1=NC(N)=NC2(CCCCC2)N1` [3-c] it was below 50%; in that of `NC1=NC2(CCCCC2)NC(Nc2cccc(F)c2)=N1` [3-d], 90.9 ± 2.9%; in that of `NC1=NC2(CCCCC2)NC(Nc2cccc(Cl)c2)=N1` [3-e1], around 95.5%. As for `NC1=NC2(CCCCC2)NC(Nc2cccc(Br)c2)=N1` [3-e2], the inhibition at 1 µM was determined as 97.4 ± 2.2% and half-maximal inhibition (IC50) was put at 33.4 nM. Regarding `NC1=NC2(CCCCC2)NC(Nc2cccc(I)c2)=N1` [3-f], the inhibition at 1 µM was 102 ± 4.5%. `COc1cccc(NC2=NC(N)=NC3(CCCCC3)N2)c1` [3-g]: the inhibition at 1 µM turned out to be 84.6 ± 1.2% and inhibition was half-maximal at 280 nM (IC50). In the case of `NC1=NC2(CCCCC2)NC(Nc2cccc(C(=O)O)c2)=N1` [3-h], the inhibition at 1 µM was below 50%. Consider `CCOC(=O)c1cccc(NC2=NC(N)=NC3(CCCCC3)N2)c1` [3-i], for which the inhibition at 1 µM was 107.2 ± 0.6% and the half-inhibitory concentration (IC50) is 27.3 nM. Turning to `CCNC(=O)c1cccc(NC2=NC(N)=NC3(CCCCC3)N2)c1` [3-j, 3-(4-amino-1,3,5-triazaspiro[5.5]undeca-2,4-dien-2-ylamino)-N-ethylbenzamide], the inhibition at 1 µM stood at 95.5 ± 4.8% and it took 104 nM to reach half-maximal inhibition (IC50). On the same counts, the results for `CCCOC(=O)c1cccc(NC2=NC(N)=NC3(CCCCC3)N2)c1` [3-k] are 110 ± 2.7% and 18.1 nM.

Take `CCN(CC)C(=O)c1cccc(NC2=NC(N)=NC3(CCCCC3)N2)c1` [3-l]: the inhibition at 1 µM was below 50%. With `Cc1ccc(NC2=NC(N)=NC3(CCCCC3)N2)cc1` [3-m], the inhibition at 1 µM turned out to be 50.2 ± 8% and the IC50 worked out at 486 nM. For `NC1=NC2(CCCCC2)NC(Nc2ccc(Cl)cc2)=N1` [3-n], in that order: 57.2 ± 5.4% and 531 nM. `CN(C)c1ccc(NC2=NC(N)=NC3(CCCCC3)N2)cc1` [3-o]: the inhibition at 1 µM is below 50%.

Turning to `CCOC(=O)c1ccc(NC2=NC(N)=NC3(CCCCC3)N2)cc1` [3-p], the inhibition at 1 µM amounted to 109 ± 4.2%.

On to `NC1=NC2(CCCCC2)NC(Nc2ccc(F)cc2F)=N1` [3-q], for which the inhibition at 1 µM is below 50%. The same measure, in the same setting: then `NC1=NC2(CCCCC2)NC(Nc2ccc(F)c(F)c2)=N1` [3-r], with 66.5 ± 2.1%.

With `Cc1ccc(NC2=NC(N)=NC3(CCCCC3)N2)cc1C` [3-s], the inhibition at 1 µM stood at 95.7 ± 1.9% and the concentration for half-maximal inhibition (IC50) was 177 nM. Consider `Cc1cc(C)cc(NC2=NC(N)=NC3(CCCCC3)N2)c1` [3-t], for which the inhibition at 1 µM was found to be 69.1 ± 2.7% and the IC50 was determined as 476 nM. On to `COc1ccc(OC)c(NC2=NC(N)=NC3(CCCCC3)N2)c1` [3-u], for which the inhibition at 1 µM turned out to be 81.1 ± 6.7% and 622 nM corresponded to half-maximal inhibition (IC50). Consider `CCOC(=O)c1cc(NC2=NC(N)=NC3(CCCCC3)N2)ccc1C` [3-v], for which the inhibition at 1 µM came out at 108 ± 1.5%. Consider `CCOC(=O)c1cc(NC2=NC(N)=NC3(CCCCC3)N2)cc(Br)c1C` [3-w], for which the inhibition at 1 µM amounted to 92.8 ± 3.1%.

With `CCOC(=O)c1cccc(NC2=NC(NC)=NC3(CCCCC3)N2)c1` [3-x, ethyl 3-(4-(methylamino)-1,3,5-triazaspiro[5.5]undeca-2,4-dien-2-ylamino)benzoate], the inhibition at 1 µM amounted to 108% and the IC50 came out at 49.4 nM. As for `CCOC(=O)c1cccc(NC2=NC(N(C)C)=NC3(CCCCC3)N2)c1` [3-y], the inhibition at 1 µM stood at 91.8 ± 0.4% and the midpoint of inhibition, the IC50, lay at 284 nM. Take `CCCC(=O)c1cccc(NC2=NC(N)=NC3(CCCCC3)N2)c1` [3-z]: the inhibition at 1 µM is 106 ± 0.8% and the IC50 worked out at 35.8 nM.

These data come from patent US9751845B2, “5-HT2B antagonists” (National Institute of Biological Sciences, Beijing, priority 2014, dated 2017).
